Legend:
[1] = target: Sigma non-opioid intracellular receptor 1 (Rattus norvegicus, UniProt Q9R0C9); experiment: Displacement of [3H](+)-pentazocine from sigma 1 opioid receptor in rat liver homogenate; assay type: tissue-based
[2] = Displacement of [3H]ditolylguanidine from sigma 2 opioid receptor in rat liver homogenate; assay type: tissue-based
[3] = Selectivity for rat liver sigma 1 opioid receptor over rat liver sigma 2 opioid receptor
[4] = target: Mu-type opioid receptor (Cavia porcellus, UniProt P97266); experiment: Displacement of [3H]DAMGO from mu-type opioid receptor in guinea pig brain homogenate; assay type: tissue-based
[5] = target: Kappa-type opioid receptor (Cavia porcellus) (UniProt P41144); experiment: Displacement of [3H]-U-69593 from kappa-type opioid receptor in guinea pig brain homogenate at 1 uM; assay type: tissue-based
[6] = target: Delta-type opioid receptor (Rattus norvegicus) (UniProt P33533); experiment: Displacement of [3H]DPDPE from delta opioid receptor in rat brain homogenate at 1 uM; assay type: tissue-based
[7] = target: Delta-type opioid receptor (Rattus norvegicus, UniProt P33533); experiment: Displacement of [3H]DPDPE from delta opioid receptor in rat brain homogenate; assay type: tissue-based
[8] = target: Mu-type opioid receptor (Cavia porcellus) (UniProt P97266); experiment: Displacement of [3H]DAMGO from mu-type opioid receptor in guinea pig brain homogenate at 1 uM; assay type: tissue-based
[9] = target: Kappa-type opioid receptor (Cavia porcellus, UniProt P41144); experiment: Displacement of [3H]-U-69593 from kappa-type opioid receptor in guinea pig brain homogenate; assay type: tissue-based
Sequence of Kappa-type opioid receptor (P41144 whole entry): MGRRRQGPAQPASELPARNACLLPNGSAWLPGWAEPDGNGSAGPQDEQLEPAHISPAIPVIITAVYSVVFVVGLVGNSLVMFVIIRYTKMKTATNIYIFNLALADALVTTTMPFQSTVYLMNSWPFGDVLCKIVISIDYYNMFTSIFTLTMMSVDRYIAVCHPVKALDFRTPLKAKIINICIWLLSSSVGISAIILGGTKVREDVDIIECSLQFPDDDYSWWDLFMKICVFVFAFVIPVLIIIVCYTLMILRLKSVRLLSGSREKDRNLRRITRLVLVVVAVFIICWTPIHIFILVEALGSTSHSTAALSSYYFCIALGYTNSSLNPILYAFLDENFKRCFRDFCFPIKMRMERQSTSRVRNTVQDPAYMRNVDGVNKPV

Sequence of Sigma non-opioid intracellular receptor 1 (Q9R0C9 whole entry): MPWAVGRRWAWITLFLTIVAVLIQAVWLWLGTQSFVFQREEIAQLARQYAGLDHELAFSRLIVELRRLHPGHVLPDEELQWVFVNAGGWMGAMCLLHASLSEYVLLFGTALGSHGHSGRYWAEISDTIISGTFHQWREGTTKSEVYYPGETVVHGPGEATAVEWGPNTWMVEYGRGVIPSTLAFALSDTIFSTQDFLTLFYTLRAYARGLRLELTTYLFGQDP
Sequence of Kappa-type opioid receptor (Cavia porcellus) (P41144 whole entry): as the sequence (P41144 whole entry) above
Sequence of Mu-type opioid receptor (Cavia porcellus) (P97266 whole entry): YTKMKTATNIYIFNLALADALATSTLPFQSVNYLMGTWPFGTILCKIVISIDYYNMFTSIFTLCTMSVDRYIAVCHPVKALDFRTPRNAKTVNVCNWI
Sequence of Delta-type opioid receptor (P33533 whole entry): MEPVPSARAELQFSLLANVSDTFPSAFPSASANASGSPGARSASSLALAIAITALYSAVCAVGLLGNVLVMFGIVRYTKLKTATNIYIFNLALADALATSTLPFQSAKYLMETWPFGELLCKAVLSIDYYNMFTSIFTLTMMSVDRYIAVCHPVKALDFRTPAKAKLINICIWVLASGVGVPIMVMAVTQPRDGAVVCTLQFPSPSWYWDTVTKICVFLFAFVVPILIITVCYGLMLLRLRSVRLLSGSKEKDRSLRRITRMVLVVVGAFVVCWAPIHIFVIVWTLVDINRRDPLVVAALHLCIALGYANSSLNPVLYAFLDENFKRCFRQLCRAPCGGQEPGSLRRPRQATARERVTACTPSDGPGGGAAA
Sequence of Delta-type opioid receptor (Rattus norvegicus) (P33533 whole entry): as above
Sequence of Mu-type opioid receptor (P97266 whole entry): as the sequence (P97266 whole entry) above

Compound	Ki [1]	Ki [2]	selectivity ratio [3]	Ki [4]	inhibition [5]	inhibition [6]	Ki [7]	inhibition [8]	Ki [9]
C/C(=C\CN(C)Cc1ccccc1)c1ccc(-c2ccccc2)cc1	4.17 nM	309 nM	74						
COc1ccc2cc(/C(C)=C/CN(C)Cc3ccccc3)ccc2c1	13.7 nM	568 nM	41						
COc1ccc2cc(C(C)CCN(C)C)ccc2c1 (racemic)	14.4 nM	1550 nM	108						
CC(CCN(C)Cc1ccccc1)c1ccc(-c2ccccc2)cc1 (racemic)	3.59 nM	214 nM	60	248 nM	15%	0%			
CN(CCC(C)(O)c1ccc(-c2ccccc2)cc1)Cc1ccccc1 (racemic)	2.38 nM	215 nM	90		30%	31%		45%	
COc1ccc2cc(C(C)CCN(C)Cc3ccccc3)ccc2c1 (racemic)	2.31 nM	169 nM	73				171 nM	32%	841 nM

Next, values leading:

Ki [1]	Ki [2]	selectivity ratio [3]	Ki [4]	inhibition [5]	inhibition [6]	Ki [7]	inhibition [8]	Ki [9]	Compound
27.3 nM	707 nM	26							COc1ccc2cc(/C(C)=C/CN(C)C)ccc2c1
4.41 nM	136 nM	31							COc1ccc2cc(/C(C)=C/CN3CCCCC3)ccc2c1
10.4 nM	154 nM	15							COc1ccc2cc(C(C)(O)CCN3CCCCC3)ccc2c1 (stereo not drawn)
6.04 nM	940 nM	156		30%		41 nM	32%		COc1ccc2cc(C(C)(O)CCN(C)Cc3ccccc3)ccc2c1 (racemic)
38.8 nM	> 10000 nM	> 258							COc1ccc2cc(C(C)(O)CCN(C)C)ccc2c1 (racemic)
1.29 nM	169 nM	131							COc1ccc2cc(C(C)CCN3CCCCC3)ccc2c1 (racemic)

Source: ChEMBL document CHEMBL1159086, “Design, synthesis and SAR analysis of novel selective sigma1 ligands (Part 2)” (Bioorg Med Chem, 2010)
